Measurements: the NIST ThermoML archive (doi:10.1016/j.jct.2013.10.031)

Assay: wn = mass fraction of the nth substance listed
Settings: Gas, Burnett expansion method

FCC(F)(F)F [1,1,1,2-tetrafluoroethane] + CCC
Settings | mass density [kg/m3]
251.84 K, 167.7 kPa, w2 = 0.4 | 9.96073
251.85 K, 201.9 kPa, w2 = 0.4 | 13.2676
251.86 K, 140.8 kPa, w2 = 0.4 | 7.47724
251.88 K, 122.9 kPa, w2 = 0.4 | 5.6131
251.89 K, 177.7 kPa, w2 = 0.45 | 5.82156
251.9 K, 103.2 kPa, w2 = 0.45 | 3.28086
251.9 K, 135.5 kPa, w2 = 0.45 | 4.37034
251.9 K, 231.8 kPa, w2 = 0.45 | 7.75442
252.28 K, 125.8 kPa, w2 = 0.5 | 3.8957
252.28 K, 164.9 kPa, w2 = 0.5 | 5.1893
252.29 K, 95.7 kPa, w2 = 0.5 | 2.9246
252.29 K, 215.3 kPa, w2 = 0.5 | 6.9121
252.3 K, 277.7 kPa, w2 = 0.5 | 9.2069
254.94 K, 147.3 kPa, w2 = 0.65 | 4.0008
254.94 K, 193.1 kPa, w2 = 0.65 | 5.32
254.94 K, 251.7 kPa, w2 = 0.65 | 7.0741
254.95 K, 111.9 kPa, w2 = 0.65 | 3.0009
255.01 K, 161.7 kPa, w2 = 0.55 | 4.7449
255.01 K, 211.6 kPa, w2 = 0.55 | 6.3095
255.01 K, 275.1 kPa, w2 = 0.55 | 8.3897
255.02 K, 122.9 kPa, w2 = 0.55 | 3.5683
255.02 K, 242.1 kPa, w2 = 0.6 | 7.0088
255.03 K, 107.3 kPa, w2 = 0.6 | 2.9809
255.03 K, 141.3 kPa, w2 = 0.6 | 3.9638
255.03 K, 185.5 kPa, w2 = 0.6 | 5.2708
255.79 K, 278.4 kPa, w2 = 0.45 | 9.23624
255.8 K, 213.6 kPa, w2 = 0.45 | 6.93377
255.81 K, 124.4 kPa, w2 = 0.45 | 3.90764
255.81 K, 163.3 kPa, w2 = 0.45 | 5.20515
255.82 K, 214.2 kPa, w2 = 0.4 | 7.34761
255.82 K, 276.5 kPa, w2 = 0.4 | 9.7875
255.83 K, 125 kPa, w2 = 0.4 | 4.14099
255.83 K, 163.9 kPa, w2 = 0.4 | 5.51597
256.28 K, 141.3 kPa, w2 = 0.5 | 4.27286
256.28 K, 185.6 kPa, w2 = 0.5 | 5.69162
256.28 K, 242.9 kPa, w2 = 0.5 | 7.58146
256.28 K, 314.6 kPa, w2 = 0.5 | 10.099
256.29 K, 107.2 kPa, w2 = 0.5 | 3.20772
258.98 K, 181.5 kPa, w2 = 0.65 | 4.8943
258.99 K, 138.2 kPa, w2 = 0.65 | 3.6806
258.99 K, 237.5 kPa, w2 = 0.65 | 6.508
259 K, 308.1 kPa, w2 = 0.65 | 8.6533
259.04 K, 159.4 kPa, w2 = 0.6 | 4.3995
259.04 K, 209.2 kPa, w2 = 0.6 | 5.8501
259.04 K, 273.1 kPa, w2 = 0.6 | 7.7791
259.05 K, 121 kPa, w2 = 0.6 | 3.3086
259.15 K, 246.1 kPa, w2 = 0.55 | 7.2337
259.15 K, 319.6 kPa, w2 = 0.55 | 9.6189
259.16 K, 143 kPa, w2 = 0.55 | 4.0909
259.16 K, 188 kPa, w2 = 0.55 | 5.4398
260.14 K, 233.5 kPa, w2 = 0.45 | 7.48249
260.15 K, 178.4 kPa, w2 = 0.45 | 5.61717
260.16 K, 136 kPa, w2 = 0.45 | 4.21669
260.16 K, 216.7 kPa, w2 = 0.5 | 6.56707
260.16 K, 304 kPa, w2 = 0.45 | 9.96648
260.17 K, 104.4 kPa, w2 = 0.45 | 3.16556
260.18 K, 117.7 kPa, w2 = 0.4 | 3.78056
260.19 K, 155.8 kPa, w2 = 0.4 | 5.03578
260.19 K, 265.9 kPa, w2 = 0.4 | 8.93493
260.2 K, 125.4 kPa, w2 = 0.5 | 3.70054
260.2 K, 165.1 kPa, w2 = 0.5 | 4.92963
260.21 K, 95 kPa, w2 = 0.5 | 2.77802
260.25 K, 204 kPa, w2 = 0.4 | 6.70606
260.39 K, 282.8 kPa, w2 = 0.5 | 8.73987
263.01 K, 137.7 kPa, w2 = 0.65 | 3.5955
263.01 K, 237 kPa, w2 = 0.65 | 6.3575
263.01 K, 308.7 kPa, w2 = 0.65 | 8.4537
263.02 K, 181 kPa, w2 = 0.65 | 4.781
263.04 K, 222.9 kPa, w2 = 0.55 | 6.3877
263.05 K, 128.9 kPa, w2 = 0.55 | 3.6124
263.05 K, 219.6 kPa, w2 = 0.6 | 6.0704
263.05 K, 286.9 kPa, w2 = 0.6 | 8.072
263.05 K, 291.1 kPa, w2 = 0.55 | 8.4935
263.06 K, 167.2 kPa, w2 = 0.6 | 4.5651
263.06 K, 169.8 kPa, w2 = 0.55 | 4.8035
263.06 K, 376.6 kPa, w2 = 0.55 | 11.2936
263.07 K, 371.3 kPa, w2 = 0.6 | 10.733
264.02 K, 234.6 kPa, w2 = 0.45 | 7.35423
264.02 K, 305.6 kPa, w2 = 0.45 | 9.80334
264.03 K, 136.3 kPa, w2 = 0.45 | 4.14766
264.03 K, 179.2 kPa, w2 = 0.45 | 5.52482
264.03 K, 395.1 kPa, w2 = 0.45 | 13.0578
264.05 K, 220.5 kPa, w2 = 0.4 | 7.15058
264.05 K, 288.1 kPa, w2 = 0.4 | 9.52478
264.06 K, 127.7 kPa, w2 = 0.4 | 4.02995
264.06 K, 168.1 kPa, w2 = 0.4 | 5.36802
264.06 K, 373.8 kPa, w2 = 0.4 | 12.6873
264.29 K, 216 kPa, w2 = 0.5 | 6.42237
264.29 K, 282.6 kPa, w2 = 0.5 | 8.55501
264.29 K, 367.3 kPa, w2 = 0.5 | 11.3955
264.3 K, 124.9 kPa, w2 = 0.5 | 3.61957
264.3 K, 164.5 kPa, w2 = 0.5 | 4.82138
266.99 K, 289.8 kPa, w2 = 0.65 | 7.7396
267.01 K, 221.7 kPa, w2 = 0.65 | 5.82
267.01 K, 375.8 kPa, w2 = 0.65 | 10.2907
267.02 K, 128.5 kPa, w2 = 0.65 | 3.2915
267.02 K, 169 kPa, w2 = 0.65 | 4.3767
267.04 K, 261.1 kPa, w2 = 0.55 | 7.4247
267.04 K, 340.3 kPa, w2 = 0.55 | 9.8728
267.05 K, 199.2 kPa, w2 = 0.55 | 5.5837
267.05 K, 438.6 kPa, w2 = 0.55 | 13.1279
267.07 K, 138.6 kPa, w2 = 0.6 | 3.6841
267.07 K, 151.4 kPa, w2 = 0.55 | 4.1987
267.07 K, 182.7 kPa, w2 = 0.6 | 4.8989
267.07 K, 239.8 kPa, w2 = 0.6 | 6.5142
267.07 K, 313.2 kPa, w2 = 0.6 | 8.6621
267.08 K, 405.7 kPa, w2 = 0.6 | 11.5178
267.95 K, 114.5 kPa, w2 = 0.4 | 3.5398
267.95 K, 150.8 kPa, w2 = 0.4 | 4.71519
267.95 K, 198.3 kPa, w2 = 0.4 | 6.28082
267.96 K, 259.7 kPa, w2 = 0.4 | 8.36602
268 K, 338.5 kPa, w2 = 0.4 | 11.1424
268.07 K, 437.9 kPa, w2 = 0.4 | 14.8381
268.15 K, 234.6 kPa, w2 = 0.45 | 7.16341
268.15 K, 306.8 kPa, w2 = 0.45 | 9.54198
268.15 K, 398.6 kPa, w2 = 0.45 | 12.7103
268.16 K, 135.7 kPa, w2 = 0.45 | 4.03719
268.16 K, 178.7 kPa, w2 = 0.45 | 5.37765
268.22 K, 133.2 kPa, w2 = 0.5 | 3.80047
268.23 K, 175.4 kPa, w2 = 0.5 | 5.06234
268.24 K, 230.4 kPa, w2 = 0.5 | 6.74301
268.24 K, 301.4 kPa, w2 = 0.5 | 8.98179
268.25 K, 391.6 kPa, w2 = 0.5 | 11.9637
270.98 K, 225.5 kPa, w2 = 0.55 | 6.2618
270.99 K, 171.5 kPa, w2 = 0.55 | 4.709
270.99 K, 295.2 kPa, w2 = 0.55 | 8.3263
270.99 K, 384.1 kPa, w2 = 0.55 | 11.0715
271.01 K, 493 kPa, w2 = 0.55 | 14.7211
271.03 K, 140.5 kPa, w2 = 0.65 | 3.5483
271.03 K, 242.2 kPa, w2 = 0.65 | 6.274
271.03 K, 316.1 kPa, w2 = 0.65 | 8.3428
271.04 K, 184.7 kPa, w2 = 0.65 | 4.7181
271.04 K, 466.5 kPa, w2 = 0.6 | 13.2292
271.05 K, 409.9 kPa, w2 = 0.65 | 11.0926
271.08 K, 361.5 kPa, w2 = 0.6 | 9.9474
271.1 K, 160.8 kPa, w2 = 0.6 | 4.2305
271.1 K, 211.6 kPa, w2 = 0.6 | 5.6254
271.1 K, 277.5 kPa, w2 = 0.6 | 7.4803
271.58 K, 526.1 kPa, w2 = 0.5 | 16.4345
271.6 K, 411.1 kPa, w2 = 0.5 | 12.337
271.62 K, 241.2 kPa, w2 = 0.5 | 6.95248
271.62 K, 316.5 kPa, w2 = 0.5 | 9.26115
271.64 K, 182.9 kPa, w2 = 0.5 | 5.21904
271.65 K, 138.7 kPa, w2 = 0.5 | 3.918
272.12 K, 507.5 kPa, w2 = 0.45 | 16.4006
272.13 K, 175.9 kPa, w2 = 0.45 | 5.20923
272.13 K, 231.2 kPa, w2 = 0.45 | 6.93891
272.13 K, 289.6 kPa, w2 = 0.4 | 9.21252
272.13 K, 302.5 kPa, w2 = 0.45 | 9.24297
272.13 K, 393.6 kPa, w2 = 0.45 | 12.3121
272.14 K, 127.8 kPa, w2 = 0.4 | 3.89783
272.14 K, 168.4 kPa, w2 = 0.4 | 5.19207
272.14 K, 221.2 kPa, w2 = 0.4 | 6.91602
